In patent US6737383B1, “Herbicidal oxadiazolidines” (priority 1999, dated 2004):

What was measured:
barnyardgrass = experiment: Test C postemergence barnyardgrass; assay type: in vivo, Echinochloa crus-galli; details: 0 to 100 scale, 0 no effect, 100 complete control
How it was run: (§1)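 Soil: sandy loam/potting mix 60:40. Treatment: postemergence, solvent + surfactant formulation. Readout: visual control score 0–100 vs untreated at ~14–21 days.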

cocklebur = experiment: Test C postemergence cocklebur; assay type: in vivo, Xanthium strumarium; details: 0 to 100 scale, 0 no effect, 100 complete control
How it was run: as §1

field bindweed = experiment: Test C postemergence field bindweed; assay type: in vivo, Convolvulus arvensis; details: 0 to 100 scale, 0 no effect, 100 complete control
Procedure: (§2) Compounds evaluated in this test were formulated in a non-phytotoxic solvent mixture which included a surfactant and applied to plants that were grown for various periods of time before treatment (postemergence application). A mixture of sandy loam soil and greenhouse potting mix in a 60:40 ratio was used for the postemergence test.
Plantings of these crops and weed species were adjusted to produce plants of appropriate size for the postemergence test. All plant species were grown using normal greenhouse practices. Crop and weed species include arrowleaf sida (Sida rhombifolia), barnyardgrass (Echinochloa crus-galli), cocklebur (Xanthium strumarium), common ragweed (Ambrosia elatior), corn (Zea mays), cotton (Gossypium hirsutum), eastern black nightshade (Solanum ptycanthum), fall panicum (Panicum dichotomiflorum), field bindweed (Convolvulus arvensis), giant foxtail (Setaria faberii), hairy beggarticks (Bidens pilosa), ivyleaf morningglory (Ipomoea hederacea), johnsongrass (Sorghum halepense), ladysthumb smartweed (Polygonum persicaria), lambsquarters (Chenopodium album), large crabgrass (Digitaria sanguinalis), purple nutsedge (Cyperus rotundus), redroot pigweed (Amaranthus retroflexus), soybean (Glycine max), surinam grass (Brachiaria decumbens), velvetleaf (Abutilon theophrasti) and wild poinsettia (Euphorbia heterophylla).
Treated plants and untreated controls were maintained in a greenhouse for approximately 14, to 21 days, after which all treated plants were compared to untreated controls and visually evaluated. Plant response ratings, summarized in Table C, were based upon a 0 to 100 scale where 0 was no effect and 100 was complete control. A dash response (−) means no test result.

hairy beggarticks = experiment: Test C postemergence hairy beggarticks; assay type: in vivo, Bidens pilosa; details: 0 to 100 scale, 0 no effect, 100 complete control
How it was run: as §1

soybean = experiment: Test C postemergence soybean; assay type: in vivo, Glycine max; details: 0 to 100 scale, 0 no effect, 100 complete control
How it was run: as §1

surinam grass = experiment: Test C postemergence surinam grass; assay type: in vivo, Brachiaria decumbens; details: 0 to 100 scale, 0 no effect, 100 complete control
How it was run: as §1

blackgrass = experiment: Test E blackgrass; assay type: in vivo, Alopecurus myosuroides; details: Postemergence
How it was run: (§3)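 Plants were grown under normal greenhouse practice; for postemergence, in sandy loam soil mixed 60:40 with potting mix, treated at the 1- to 4-leaf stage. The compound was in a non-phytotoxic solvent carrying a surfactant. After roughly 21 to 28 days plants were scored visually against untreated plants.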

chickweed = experiment: Test E chickweed; assay type: in vivo, Stellaria media; details: Postemergence
How it was run: as §3

field violet = experiment: Test E field violet; assay type: in vivo, Viola arvensis; details: Postemergence
How it was run: as §3

galium [1] = experiment: Test E galium; assay type: in vivo, Galium aparine; details: Postemergence
How it was run: as §3

ivyleaf speedwell = experiment: Test E postemergence ivyleaf speedwell; assay type: in vivo, Veronica hederaefolia
Procedure: as §2, with “in the 1- to 4-leaf stage” for “grown for various periods of time before treatment”
Plantings of these crops and weed species were adjusted to produce plants of appropriate size for the postemergence test. All plant species were grown using normal greenhouse practices. Crop and weed species include annual bluegrass (Poa annua), blackgrass (Alopecurus myosuroides), black nightshade (Solanum nigra), chickweed (Stellaria media), common poppy (Papaver rhoeas), deadnettle (Lamium amplexicaule), downy brome (Bromus tectorum), field violet (Viola arvensis), galium (Galium aparine), green foxtail (Setaria viridis), Italian ryegrass (Lolium multiflorum), jointed goatgrass (Aegilops cylindrica), kochia (Kochia scoparia), lambsquarters (Chenopodium album), littleseed canarygrass (Phalaris minor), rape (Brassica napus), redroot pigweed (Amaranthus retroflexus), Russian thistle (Salsola kali), scentless chamomile (Matricaria inodora), spring barley (Hordeum vulgare), sugar beet (Beta vulgaris), sunflower (Helianthus annuus), ivyleaf speedwell (Veronica hederaefolia), spring wheat (Triticum aestivum), winter wheat (Triticum aestivum), wild buckwheat (Polygonum convolvulus), wild mustard (Sinapis arvensis), wild oat (Avena fatua), windgrass (Apera spica-venti) and winter barley (Hordeum vulgare).
Treated plants and untreated controls were maintained in a greenhouse for approximately 21 to 28 days, after which all treated plants were compared to untreated controls and visually evaluated. […] A dash response (-) means no test result.

galium [2] = experiment: Test E galium; assay type: in vivo, Galium aparine; details: Preemergence
jointed goatgrass = experiment: Test E jointed goatgrass; assay type: in vivo, Aegilops cylindrica; details: Preemergence
littleseed canarygrass = experiment: Test E littleseed canarygrass; assay type: in vivo, Phalaris minor; details: Preemergence
rape = experiment: Test E rape; assay type: in vivo, Brassica napus; details: Preemergence
wild buckwheat = experiment: Test E wild buckwheat; assay type: in vivo, Polygonum convolvulus; details: Preemergence
windgrass = experiment: Test E windgrass; assay type: in vivo, Apera spica-venti; details: Preemergence
[3] = Rate 500 g/ha, 0 to 100 scale, 0 no effect, 100 complete control
[4] = Rate 250 g/ha, 0 to 100 scale where 0 is no effect and 100 is complete control
[5] = Rate 125 g/ha, 0 to 100 scale (0 no effect, 100 complete control)
[6] = Rate 500 g/ha, 0 to 100 scale where 0 is no effect and 100 is complete control
[7] = Rate 250 g/ha, 0 to 100 scale (0 no effect, 100 complete control)

CC(C)N(C(=O)n1oc(=O)n(C(C)C)c1=O)c1ccc(F)cc1 [Compound 131]
Plant response rating, Barnyardgrass (barnyardgrass; Rate 140 g/ha): 70 | Plant response rating, Barnyardgrass (barnyardgrass; Rate 280 g/ha): 70 | Plant response rating, Barnyardgrass (barnyardgrass; Rate 560 g/ha): 95 | Plant response rating, Barnyardgrass (barnyardgrass; Rate 1120 g/ha): 95 | Plant response rating, Cocklebur (cocklebur; Rate 140 g/ha): 0 | Plant response rating, Cocklebur (cocklebur; Rate 280 g/ha): 0 | Plant response rating, Cocklebur (cocklebur; Rate 560 g/ha): 0 | Plant response rating, Cocklebur (cocklebur; Rate 1120 g/ha): 10 | Plant response rating Field bindweed (field bindweed; Rate 140 g/ha): 0 | Plant response rating Field bindweed (field bindweed; Rate 280 g/ha): 0 | Plant response rating Field bindweed (field bindweed; Rate 560 g/ha): 0 | Plant response rating Field bindweed (field bindweed; Rate 1120 g/ha): 60 | Plant response rating H. beggarticks (hairy beggarticks; Rate 140 g/ha): 0 | Plant response rating H. beggarticks (hairy beggarticks; Rate 560 g/ha): 40 | Plant response rating H. beggarticks (hairy beggarticks; Rate 1120 g/ha): 70 | Plant response rating, Soybean (soybean; Rate 140 g/ha): 20 | Plant response rating, Soybean (soybean; Rate 280 g/ha): 25 | Plant response rating, Soybean (soybean; Rate 560 g/ha): 30 | Plant response rating, Soybean (soybean; Rate 1120 g/ha): 45 | Plant response rating, Surinam grass (surinam grass; Rate 140 g/ha): 0 | Plant response rating, Surinam grass (surinam grass; Rate 280 g/ha): 80 | Plant response rating, Surinam grass (surinam grass; Rate 560 g/ha): 85 | Plant response rating, Surinam grass (surinam grass; Rate 1120 g/ha): 90 | Plant response rating, Blackgrass (blackgrass; Rate 62 g/ha, 0 to 100 scale): 85 | Plant response rating, Blackgrass (blackgrass; Rate 125 g/ha, 0 to 100 scale): 20 | Plant response rating, Blackgrass (blackgrass; [3]): 75 | Blackgrass plant response rating (blackgrass; [4]): 60 | Plant response rating, Chickweed (chickweed; Rate 62 g/ha, 0 to 100 scale): 60 | Plant response rating, Chickweed (chickweed; Rate 125 g/ha, 0 to 100 scale): 10 | Plant response rating, Chickweed (chickweed; [3]): 50 | Chickweed plant response rating (chickweed; [4]): 20 | Plant response rating, Field violet (field violet; Rate 62 g/ha, 0 to 100 scale): 60 | Plant response rating, Field violet (field violet; Rate 125 g/ha, 0 to 100 scale): 0 | Plant response rating, Field violet (field violet; [3]): 0 | Field violet plant response rating (field violet; [4]): 0 | Plant response rating, Galium (galium [1]; Rate 62 g/ha, 0 to 100 scale): 50 | Plant response rating, Galium (galium [1]; Rate 125 g/ha, 0 to 100 scale): 10 | Plant response rating, Galium (galium [1]; [3]): 50 | Galium plant response rating (galium [1]; [4]): 0 | Plant response rating, Veronica hedera (ivyleaf speedwell; Rate 125 g/ha, 0 to 100 scale): 0 | Veronica hedera plant response rating (ivyleaf speedwell; [4]): 0 | Plant response rating, Veronica hedera (ivyleaf speedwell; [3]): 20 | Plant response rating, Galium (galium [2]; [5]): 60 | Galium plant response rating (0 to 100 scale) (galium [2]; Rate 250 g/ha): 50 | Plant response rating, Galium (galium [2]; [6]): 100 | Plant response rating, Jointed goatgra (jointed goatgrass; [5]): 50 | Jointed goatgra plant response rating (0 to 100 scale) (jointed goatgrass; Rate 250 g/ha): 70 | Plant response rating, Jointed goatgra (jointed goatgrass; [6]): 95 | Plant response rating, LS canarygrass (littleseed canarygrass; [5]): 70 | LS canarygrass plant response rating (0 to 100 scale) (littleseed canarygrass; Rate 250 g/ha): 70 | Plant response rating, LS canarygrass (littleseed canarygrass; [6]): 100 | Plant response rating, Rape (rape; [5]): 70 | Rape plant response rating (0 to 100 scale) (rape; Rate 250 g/ha): 75 | Plant response rating, Rape (rape; [6]): 90 | Plant response rating, Wild buckwheat (wild buckwheat; [5]): 30 | Wild buckwheat plant response rating (0 to 100 scale) (wild buckwheat; Rate 250 g/ha): 70 | Plant response rating, Wild buckwheat (wild buckwheat; [6]): 100 | Plant response rating, Windgrass (windgrass; [5]): 100 | Windgrass plant response rating (0 to 100 scale) (windgrass; Rate 250 g/ha): 100 | Plant response rating, Windgrass (windgrass; [6]): 100

CCn1c(=O)on(C(=O)N(c2ccccc2)C(C)C)c1=O [Compound 117]
Plant response rating, Barnyardgrass (barnyardgrass; Rate 140 g/ha): 70 | Plant response rating, Barnyardgrass (barnyardgrass; Rate 280 g/ha): 80 | Plant response rating, Barnyardgrass (barnyardgrass; Rate 560 g/ha): 90 | Plant response rating, Barnyardgrass (barnyardgrass; Rate 1120 g/ha): 90 | Plant response rating, Cocklebur (cocklebur; Rate 140 g/ha): 0 | Plant response rating, Cocklebur (cocklebur; Rate 280 g/ha): 0 | Plant response rating, Cocklebur (cocklebur; Rate 560 g/ha): 0 | Plant response rating, Cocklebur (cocklebur; Rate 1120 g/ha): 0 | Plant response rating Field bindweed (field bindweed; Rate 140 g/ha): 0 | Plant response rating Field bindweed (field bindweed; Rate 280 g/ha): 30 | Plant response rating Field bindweed (field bindweed; Rate 560 g/ha): 30 | Plant response rating Field bindweed (field bindweed; Rate 1120 g/ha): 40 | Plant response rating H. beggarticks (hairy beggarticks; Rate 1120 g/ha): 0 | Plant response rating, Soybean (soybean; Rate 140 g/ha): 10 | Plant response rating, Soybean (soybean; Rate 280 g/ha): 35 | Plant response rating, Soybean (soybean; Rate 560 g/ha): 40 | Plant response rating, Soybean (soybean; Rate 1120 g/ha): 60 | Plant response rating, Surinam grass (surinam grass; Rate 140 g/ha): 0 | Plant response rating, Surinam grass (surinam grass; Rate 280 g/ha): 0 | Plant response rating, Surinam grass (surinam grass; Rate 560 g/ha): 40 | Plant response rating, Surinam grass (surinam grass; Rate 1120 g/ha): 90

CC(C)N(C(=O)n1oc(=O)n(C(C)C)c1=O)c1ccc(Cl)cc1 [Compound 114]
Plant response rating, Blackgrass (blackgrass; Rate 125 g/ha, 0 to 100 scale): 0 | Plant response rating, Blackgrass (blackgrass; [7]): 20 | Plant response rating, Blackgrass (blackgrass; [3]): 65 | Plant response rating, Chickweed (chickweed; Rate 125 g/ha, 0 to 100 scale): 10 | Plant response rating, Chickweed (chickweed; [7]): 0 | Plant response rating, Chickweed (chickweed; [3]): 10 | Plant response rating, Field violet (field violet; Rate 125 g/ha, 0 to 100 scale): 0 | Plant response rating, Field violet (field violet; [7]): 0 | Plant response rating, Field violet (field violet; [3]): 15 | Plant response rating, Galium (galium [1]; Rate 125 g/ha, 0 to 100 scale): 10 | Plant response rating, Galium (galium [1]; [7]): 50 | Plant response rating, Galium (galium [1]; [3]): 85 | Plant response rating, Veronica hedera (ivyleaf speedwell; Rate 125 g/ha, 0 to 100 scale): 10 | Plant response rating, Veronica hedera (ivyleaf speedwell; [7]): 50 | Plant response rating, Veronica hedera (ivyleaf speedwell; [3]): 70 | Plant response rating, Galium (galium [2]; [5]): 100 | Plant response rating, Galium (galium [2]; Rate 250 g/ha, 0 to 100 scale): 60 | Plant response rating, Galium (galium [2]; [6]): 70 | Plant response rating, Jointed goatgra (jointed goatgrass; [5]): 20 | Plant response rating, Jointed goatgra (jointed goatgrass; Rate 250 g/ha, 0 to 100 scale): 65 | Plant response rating, Jointed goatgra (jointed goatgrass; [6]): 50 | Plant response rating, LS canarygrass (littleseed canarygrass; [5]): 50 | Plant response rating, LS canarygrass (littleseed canarygrass; Rate 250 g/ha, 0 to 100 scale): 60 | Plant response rating, LS canarygrass (littleseed canarygrass; [6]): 80 | Plant response rating, Rape (rape; [5]): 0 | Plant response rating, Rape (rape; Rate 250 g/ha, 0 to 100 scale): 20 | Plant response rating, Rape (rape; [6]): 50 | Plant response rating, Wild buckwheat (wild buckwheat; [5]): 20 | Plant response rating, Wild buckwheat (wild buckwheat; Rate 250 g/ha, 0 to 100 scale): 50 | Plant response rating, Wild buckwheat (wild buckwheat; [6]): 80 | Plant response rating, Windgrass (windgrass; [5]): 100 | Plant response rating, Windgrass (windgrass; [6]): 100
